According to patent US20110166191A1, “3-(2-amino-ethyl)-5-(3-cyclohexyl-propylidene)-thiazolidine-2,4-dione and its derivatives as multiple signaling pathway inhibitors and for the treatment of cancer” (priority 2010, published 2011):

Legend:
p-MEK = assay: Western blot analysis of p-MEK in U937 cells; format: cell-based; details: PMA/TPA 200 nM stimulation
Experimental: FIG. 1. U937 cells were treated with Formula II prepared as described in Example 4 [i.e. 3-(2-aminoethyl)-5-(3-cyclohexylpropylidene)thiazolidine-2,4-dione] for 1 h, then stimulated with PMA (200 nM) for 30 min. Lysates were analyzed for p-Akt, p-MEK, p-ERK and α-tubulin by western blot analysis.
Cells (5×10^5 per ml) were treated with various concentrations of test compound at 37° C. (5% CO2) for 3 hrs, then stimulated with TPA at a final concentration of 200 nM for 20 min. Samples from whole-cell pellets were prepared and 30 μg protein for each condition was subjected to SDS-PAGE, transferred onto a PVDF membrane, and blocked with 5% fat-free milk for 30 min. The membrane is probed with primary antibodies overnight at 4° C. followed by incubation with horseradish peroxidase-labeled anti-mouse IgG (1:5000, BD Biosciecne). The immunoreactive bands are detected by chemiluminescence methods (Pierce) and visualized on Kodak Omat film. The following primary antibodies were used: phospho-p44/42 MAPK (ERK1/2, Thr202/Tyr204), p44/42 MAPK, phospho-p90RSK (Thr359/Ser363), RSK1/RSK2/RSK3 (Cell Signaling). Blots were reprobed with antibodies against α-tubulin to ensure equal loading and transfer of proteins.

SYK = biological target: T1, SYK (Homo sapiens, UniProt P43405); assay: In vitro kinase screening; format: biochemical; details: 10 μM concentration
T1 construct: purchased Caliper Life Sciences
Experimental: (§1) Formula II [3-(2-aminoethyl)-5-(3-cyclohexylpropylidene)thiazolidine-2,4-dione] was screened against a panel of kinases at 10 μM concentration by Caliper Life Sciences according to their established protocol.

PKA = biological target: T2, PKA (Homo sapiens, UniProt P17612); assay: In vitro kinase screening; format: biochemical; details: 10 μM concentration
T2 construct: Caliper Life Sciences
Experimental: as §1

FLT3 = biological target: T3, FLT3 (Homo sapiens, UniProt P36888); assay: In vitro kinase screening; format: biochemical; details: FLT3, 10 μM concentration
T3 construct: Caliper Life Sciences (screening service)
T3 sequence (P36888 27-993): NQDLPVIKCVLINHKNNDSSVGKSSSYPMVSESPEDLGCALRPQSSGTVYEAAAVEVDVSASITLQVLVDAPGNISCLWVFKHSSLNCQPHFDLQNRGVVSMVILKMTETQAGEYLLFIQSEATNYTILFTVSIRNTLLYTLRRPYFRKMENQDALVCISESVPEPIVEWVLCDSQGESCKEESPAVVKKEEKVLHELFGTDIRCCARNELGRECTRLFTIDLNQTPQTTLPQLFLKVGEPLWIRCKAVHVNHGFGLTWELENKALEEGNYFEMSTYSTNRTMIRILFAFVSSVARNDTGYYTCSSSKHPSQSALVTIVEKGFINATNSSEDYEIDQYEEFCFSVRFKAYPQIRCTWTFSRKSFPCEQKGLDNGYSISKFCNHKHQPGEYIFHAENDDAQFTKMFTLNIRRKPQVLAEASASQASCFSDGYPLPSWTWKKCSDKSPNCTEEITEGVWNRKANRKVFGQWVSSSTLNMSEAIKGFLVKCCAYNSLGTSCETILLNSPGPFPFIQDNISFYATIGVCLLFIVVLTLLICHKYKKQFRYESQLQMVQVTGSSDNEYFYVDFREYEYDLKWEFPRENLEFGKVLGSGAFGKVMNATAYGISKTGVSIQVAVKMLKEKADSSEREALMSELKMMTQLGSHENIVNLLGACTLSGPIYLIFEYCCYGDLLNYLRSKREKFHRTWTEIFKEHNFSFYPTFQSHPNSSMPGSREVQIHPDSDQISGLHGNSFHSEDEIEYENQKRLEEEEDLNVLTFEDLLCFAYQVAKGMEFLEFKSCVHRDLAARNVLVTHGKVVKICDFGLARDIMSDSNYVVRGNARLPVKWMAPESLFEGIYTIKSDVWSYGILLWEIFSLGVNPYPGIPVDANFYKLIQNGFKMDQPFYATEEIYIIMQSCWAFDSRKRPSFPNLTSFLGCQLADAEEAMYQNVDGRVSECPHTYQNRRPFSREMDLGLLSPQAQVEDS
Experimental: as §1

DYRK1a = biological target: T4, DYRK1a (Homo sapiens, UniProt Q13627); assay: In vitro kinase screening; format: biochemical; details: 10 μM concentration
T4 construct: Caliper Life Sciences (screening service)
Experimental: as §1

PIM2 = biological target: T5, PIM2 (Homo sapiens, UniProt Q9P1W9); assay: In vitro kinase screening; format: biochemical; details: PIM2, 10 μM concentration
T5 construct: Caliper Life Sciences
Experimental: as §1

PKD2 = biological target: T6, PKD2 (Homo sapiens, UniProt Q9BZL6); assay: In vitro kinase screening; format: biochemical; details: PKD2, 10 μM concentration
T6 construct: Caliper Life Sciences
T6 sequence (Q9BZL6 whole entry): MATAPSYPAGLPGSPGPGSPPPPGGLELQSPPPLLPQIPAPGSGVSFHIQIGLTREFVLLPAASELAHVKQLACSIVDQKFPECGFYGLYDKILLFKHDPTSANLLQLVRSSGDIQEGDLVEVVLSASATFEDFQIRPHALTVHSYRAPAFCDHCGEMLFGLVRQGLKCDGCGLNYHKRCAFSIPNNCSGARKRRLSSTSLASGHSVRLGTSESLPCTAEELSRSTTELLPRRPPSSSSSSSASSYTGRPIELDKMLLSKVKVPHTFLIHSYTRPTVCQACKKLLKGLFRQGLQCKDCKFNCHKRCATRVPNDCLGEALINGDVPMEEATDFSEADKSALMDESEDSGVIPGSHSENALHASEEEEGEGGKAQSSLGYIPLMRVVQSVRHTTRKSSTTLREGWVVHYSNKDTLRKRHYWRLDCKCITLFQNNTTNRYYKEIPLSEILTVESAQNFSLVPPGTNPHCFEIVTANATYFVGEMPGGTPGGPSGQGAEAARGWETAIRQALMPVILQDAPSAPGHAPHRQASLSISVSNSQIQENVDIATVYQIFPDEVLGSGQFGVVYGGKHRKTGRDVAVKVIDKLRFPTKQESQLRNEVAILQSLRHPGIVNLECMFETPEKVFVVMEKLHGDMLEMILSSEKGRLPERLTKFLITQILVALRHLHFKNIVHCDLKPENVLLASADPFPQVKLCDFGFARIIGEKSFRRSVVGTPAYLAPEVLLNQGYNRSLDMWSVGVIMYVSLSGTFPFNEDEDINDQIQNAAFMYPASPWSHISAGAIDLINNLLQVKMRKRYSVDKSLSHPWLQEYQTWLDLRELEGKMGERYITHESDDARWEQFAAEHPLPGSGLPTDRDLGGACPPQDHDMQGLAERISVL
Experimental: as §1

CHK1 = biological target: T7, CHK1 (Homo sapiens, UniProt O14757); assay: In vitro kinase screening; format: biochemical; details: CHK1, 10 μM concentration
T7 construct: Caliper Life Sciences (screening service)
Experimental: as §1

LYN = biological target: T8, LYN (Homo sapiens, UniProt P07948); assay: In vitro kinase screening; format: biochemical; details: 10 μM concentration
T8 construct: Caliper Life Sciences
Experimental: as §1

PRAK = biological target: T9, PRAK (Homo sapiens, UniProt Q8IW41); assay: In vitro kinase screening; format: biochemical; details: 10 μM concentration
T9 construct: Caliper Life Sciences
T9 sequence (Q8IW41 whole entry, species assumed): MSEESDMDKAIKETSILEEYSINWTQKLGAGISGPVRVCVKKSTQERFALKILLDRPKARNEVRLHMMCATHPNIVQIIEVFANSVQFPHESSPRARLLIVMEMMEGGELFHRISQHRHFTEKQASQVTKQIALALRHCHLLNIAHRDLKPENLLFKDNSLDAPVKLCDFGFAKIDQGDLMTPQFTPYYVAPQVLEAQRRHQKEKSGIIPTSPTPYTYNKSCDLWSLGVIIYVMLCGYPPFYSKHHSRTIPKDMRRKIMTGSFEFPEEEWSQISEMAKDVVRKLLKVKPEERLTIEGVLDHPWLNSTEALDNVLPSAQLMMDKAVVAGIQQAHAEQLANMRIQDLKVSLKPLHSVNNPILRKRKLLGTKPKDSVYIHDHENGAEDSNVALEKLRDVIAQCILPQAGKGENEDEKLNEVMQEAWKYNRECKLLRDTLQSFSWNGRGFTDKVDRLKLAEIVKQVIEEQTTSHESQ
Experimental: as §1

LCK = biological target: T10, LCK (Homo sapiens, UniProt P06239); assay: In vitro kinase screening; format: biochemical; details: 10 μM concentration
T10 construct: Caliper Life Sciences
Experimental: as §1

MARK1 = biological target: T11, MARK1 (Homo sapiens, UniProt Q9P0L2); assay: In vitro kinase screening; format: biochemical; details: MARK1, 10 μM concentration
T11 construct: Caliper Life Sciences
T11 sequence (Q9P0L2 whole entry, species assumed): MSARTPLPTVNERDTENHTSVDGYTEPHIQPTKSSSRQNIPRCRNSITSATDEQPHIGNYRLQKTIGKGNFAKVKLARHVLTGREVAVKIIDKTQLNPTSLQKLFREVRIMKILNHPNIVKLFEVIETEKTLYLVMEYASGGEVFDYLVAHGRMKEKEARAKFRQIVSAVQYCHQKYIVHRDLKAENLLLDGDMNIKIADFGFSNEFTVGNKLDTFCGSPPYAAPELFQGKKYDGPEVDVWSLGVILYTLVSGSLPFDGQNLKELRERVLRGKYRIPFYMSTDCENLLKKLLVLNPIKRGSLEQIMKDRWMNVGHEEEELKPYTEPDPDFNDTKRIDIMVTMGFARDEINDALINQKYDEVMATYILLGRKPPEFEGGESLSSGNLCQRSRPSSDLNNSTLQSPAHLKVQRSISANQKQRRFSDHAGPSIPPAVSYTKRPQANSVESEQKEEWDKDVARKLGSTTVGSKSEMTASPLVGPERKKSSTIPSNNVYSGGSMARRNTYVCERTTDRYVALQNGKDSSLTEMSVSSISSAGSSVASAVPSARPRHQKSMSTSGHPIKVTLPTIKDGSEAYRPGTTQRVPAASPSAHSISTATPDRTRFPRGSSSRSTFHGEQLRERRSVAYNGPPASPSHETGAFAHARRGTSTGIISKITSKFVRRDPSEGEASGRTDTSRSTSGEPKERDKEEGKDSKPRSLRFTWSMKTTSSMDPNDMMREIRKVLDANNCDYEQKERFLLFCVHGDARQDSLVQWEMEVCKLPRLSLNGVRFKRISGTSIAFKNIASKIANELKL
Experimental: as §1

MSK1 = biological target: T12, MSK1 (Homo sapiens, UniProt O75582); assay: In vitro kinase screening; format: biochemical; details: MSK1, 10 μM concentration
T12 construct: Caliper Life Sciences
T12 sequence (O75582 whole entry, species assumed): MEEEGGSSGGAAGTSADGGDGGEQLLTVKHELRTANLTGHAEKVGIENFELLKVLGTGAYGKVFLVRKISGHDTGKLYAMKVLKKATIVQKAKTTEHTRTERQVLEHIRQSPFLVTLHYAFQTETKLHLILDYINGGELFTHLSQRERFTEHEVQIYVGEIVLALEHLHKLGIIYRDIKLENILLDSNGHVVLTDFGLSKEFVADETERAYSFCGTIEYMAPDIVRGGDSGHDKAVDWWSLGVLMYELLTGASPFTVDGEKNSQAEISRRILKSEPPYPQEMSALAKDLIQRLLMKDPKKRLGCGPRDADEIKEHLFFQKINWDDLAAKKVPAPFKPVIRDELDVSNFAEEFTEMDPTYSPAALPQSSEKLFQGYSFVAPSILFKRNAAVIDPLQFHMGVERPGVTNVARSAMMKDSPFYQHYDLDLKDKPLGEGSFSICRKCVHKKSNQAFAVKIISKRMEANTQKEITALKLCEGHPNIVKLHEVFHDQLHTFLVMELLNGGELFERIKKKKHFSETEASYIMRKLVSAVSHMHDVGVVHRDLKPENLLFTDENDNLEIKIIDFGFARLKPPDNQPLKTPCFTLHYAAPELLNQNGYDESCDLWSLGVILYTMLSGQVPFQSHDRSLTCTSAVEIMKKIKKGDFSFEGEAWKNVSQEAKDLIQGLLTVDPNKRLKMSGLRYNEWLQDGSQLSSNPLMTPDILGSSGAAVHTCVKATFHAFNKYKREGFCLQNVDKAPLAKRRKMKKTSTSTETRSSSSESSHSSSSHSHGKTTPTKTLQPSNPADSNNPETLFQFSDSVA
Experimental: as §1

c-Raf = biological target: T13, c-Raf (Homo sapiens, UniProt P04049); assay: In vitro kinase screening; format: biochemical; details: 10 μM concentration
T13 construct: Caliper Life Sciences (screening service)
Experimental: as §1

PAK2 = biological target: T14, PAK2 (Homo sapiens, UniProt Q13177); assay: In vitro kinase screening; format: biochemical; details: PAK2, 10 μM concentration
T14 construct: Caliper Life Sciences
Experimental: as §1

Erk1 = biological target: T15, Erk1 (Homo sapiens, UniProt P27361); assay: In vitro kinase screening; format: biochemical; details: Erk1, 10 μM concentration
T15 construct: Caliper Life Sciences (screening service)
Experimental: as §1

AKT1 = biological target: T16, AKT1 (Homo sapiens, UniProt P31749); assay: In vitro kinase screening; format: biochemical; details: AKT1, 10 μM concentration
T16 construct: Caliper Life Sciences (screening service)
Experimental: as §1

AurA = biological target: T17, AurA (Homo sapiens, UniProt O14965); assay: In vitro kinase screening; format: biochemical; details: 10 μM concentration
T17 construct: Caliper Life Sciences (screening service)
T17 sequence (O14965 whole entry): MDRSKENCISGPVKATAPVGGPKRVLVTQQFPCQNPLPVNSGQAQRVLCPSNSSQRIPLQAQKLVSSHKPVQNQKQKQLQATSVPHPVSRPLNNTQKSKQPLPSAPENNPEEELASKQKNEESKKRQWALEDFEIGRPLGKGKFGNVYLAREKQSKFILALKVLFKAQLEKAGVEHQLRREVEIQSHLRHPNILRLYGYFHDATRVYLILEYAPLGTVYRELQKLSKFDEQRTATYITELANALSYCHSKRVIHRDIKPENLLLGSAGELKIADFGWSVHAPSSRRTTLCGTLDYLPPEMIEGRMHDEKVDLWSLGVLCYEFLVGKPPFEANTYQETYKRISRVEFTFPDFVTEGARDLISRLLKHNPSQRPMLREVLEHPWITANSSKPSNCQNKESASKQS
Experimental: as §1

MEK1 = biological target: T18, MEK1 (Homo sapiens, UniProt Q02750); assay: In vitro kinase screening; format: biochemical; details: MEK1, 10 μM concentration
T18 construct: Caliper Life Sciences
Experimental: as §1

BTK = biological target: T19, BTK (Homo sapiens, UniProt Q06187); assay: In vitro kinase screening; format: biochemical; details: 10 μM concentration
T19 construct: Caliper Life Sciences (screening service)
Experimental: as §1

MST2 = biological target: T20, MST2 (Homo sapiens, UniProt Q13188); assay: In vitro kinase screening; format: biochemical; details: MST2, 10 μM concentration
T20 construct: Caliper Life Sciences
T20 sequence (Q13188 whole entry, species assumed): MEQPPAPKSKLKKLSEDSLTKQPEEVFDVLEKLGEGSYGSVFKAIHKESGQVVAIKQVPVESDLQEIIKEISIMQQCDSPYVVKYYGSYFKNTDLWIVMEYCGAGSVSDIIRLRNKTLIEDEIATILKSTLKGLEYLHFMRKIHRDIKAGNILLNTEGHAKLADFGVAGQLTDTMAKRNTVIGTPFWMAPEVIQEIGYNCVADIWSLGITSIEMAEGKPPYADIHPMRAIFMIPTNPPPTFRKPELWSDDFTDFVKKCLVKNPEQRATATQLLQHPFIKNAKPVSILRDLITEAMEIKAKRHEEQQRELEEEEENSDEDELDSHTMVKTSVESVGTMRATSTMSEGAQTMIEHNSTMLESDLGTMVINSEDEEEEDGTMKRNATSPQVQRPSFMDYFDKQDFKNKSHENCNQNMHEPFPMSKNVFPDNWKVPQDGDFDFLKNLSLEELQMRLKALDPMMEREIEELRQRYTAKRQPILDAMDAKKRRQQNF
Experimental: as §1

U937 = assay: Cell viability assay; format: cell-based; details: Homo sapiens, U-937, U937 cells, 24 hrs, read-out: Inhibition of cancer cell proliferation IC50
Experimental: (§2) Cells were cultured at a density of 5×10^4 (U937) or 1×10^4 (PC-3, DU145, M12, HT29) cells per well in flat bottomed 96-well plates and treated with various concentrations of test compound at 37° C. (5% CO2). After 24 h, 20 μL of CellTiter 96® Aqueous One Solution Reagent (Promega, Madison, Wis.) was added to each well according to the manufacturer's instructions. After 1 hour, the cell viability was determined by measuring the absorbance at 490 nm using a micro-plate reader.

PC-3 = assay: Cell viability assay; format: cell-based; details: Homo sapiens, PC-3 cells, 24 hrs, read-out: Inhibition of cancer cell proliferation IC50
Experimental: as §2

M12 = assay: Cell viability assay; format: cell-based; details: M12 cells, 24 hrs, read-out: Inhibition of cancer cell proliferation IC50
Experimental: as §2

DU145 = assay: Cell viability assay; format: cell-based; details: Homo sapiens, DU-145, DU145 cells, 24 hrs, read-out: Inhibition of cancer cell proliferation IC50
Experimental: as §2

HT29 = assay: Cell viability assay; format: cell-based; details: Homo sapiens, HT-29, HT29 cells, 24 hrs, read-out: Inhibition of cancer cell proliferation IC50
Experimental: as §2

With `NCCN1C(=O)S/C(=C\CCC2CCCCC2)C1=O` [Example 4, 3-(2-aminoethyl)-5-(3-cyclohexylpropylidene)thiazolidine-2,4-dione] the “p-MEK level (western blot)” value (p-MEK) was “dose-dependently decreased the p-MEK level”, the inhibition at 10 µM (SYK) was 9% and the inhibition at 10 µM (PKA) was -3%. The inhibition at 10 µM (FLT3) was 38%, the inhibition at 10 µM (DYRK1a) was -5% and the inhibition at 10 µM (PIM2) was 38%. For the same molecule, the inhibition at 10 µM (PKD2) was 0%, the inhibition at 10 µM (CHK1) was 11% and the inhibition at 10 µM (LYN) was 0%. It also gave an inhibition at 10 µM (PRAK) of 4%, an inhibition at 10 µM (LCK) of 4% and an inhibition at 10 µM (MARK1) of 0%. It also gave an inhibition at 10 µM (MSK1) of 6%, an inhibition at 10 µM (c-Raf) of -1% and an inhibition at 10 µM (PAK2) of 10%. For the same molecule, the inhibition at 10 µM (Erk1) was 21%, the inhibition at 10 µM (AKT1) was 3% and the inhibition at 10 µM (AurA) was -4%. The inhibition at 10 µM (MEK1) was 69%, the inhibition at 10 µM (BTK) was 12% and the inhibition at 10 µM (MST2) was -3%. The IC50 (U937) was 2.21 µM, the IC50 (PC-3) was 4.46 µM and the IC50 (M12) was 4.51 µM. It also gave an IC50 (DU145) of 4.8 µM and an IC50 (HT29) of 17.9 µM.
